Activity calls are given as the source filed them. No cut-off for these calls is given here.

In experiment [1] the target is T1, Serine/threonine-protein kinase BRSK1 (Homo sapiens) (UniProt Q8TDC3).
T1 sequence (whole entry): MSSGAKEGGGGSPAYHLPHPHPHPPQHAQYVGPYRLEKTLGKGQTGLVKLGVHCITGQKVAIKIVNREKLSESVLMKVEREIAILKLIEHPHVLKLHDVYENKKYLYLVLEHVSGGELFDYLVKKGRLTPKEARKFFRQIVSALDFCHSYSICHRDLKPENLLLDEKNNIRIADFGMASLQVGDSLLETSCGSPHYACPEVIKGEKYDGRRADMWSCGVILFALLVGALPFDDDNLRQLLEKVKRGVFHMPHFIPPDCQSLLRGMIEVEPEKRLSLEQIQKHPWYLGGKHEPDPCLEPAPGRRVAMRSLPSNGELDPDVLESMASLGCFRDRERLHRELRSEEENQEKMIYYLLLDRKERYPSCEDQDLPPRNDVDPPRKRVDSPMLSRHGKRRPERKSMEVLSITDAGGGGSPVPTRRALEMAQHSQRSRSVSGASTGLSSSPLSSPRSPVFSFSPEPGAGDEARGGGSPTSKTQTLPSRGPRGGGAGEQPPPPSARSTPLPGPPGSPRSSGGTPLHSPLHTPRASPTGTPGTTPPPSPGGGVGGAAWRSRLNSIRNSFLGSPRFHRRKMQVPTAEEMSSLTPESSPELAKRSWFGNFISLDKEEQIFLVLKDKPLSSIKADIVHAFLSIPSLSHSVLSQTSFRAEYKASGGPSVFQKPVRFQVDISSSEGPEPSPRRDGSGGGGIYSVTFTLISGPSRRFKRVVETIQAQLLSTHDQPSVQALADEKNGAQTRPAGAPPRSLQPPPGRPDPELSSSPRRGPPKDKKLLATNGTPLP
Kind of experiment: Inhibition of BRSK1 (unknown origin) assessed as residual activity at 100 nM by KINOMEscan analysis relative to control.

Experiment [2] has as its target Serine/threonine-protein kinase Nek6 (Homo sapiens) (UniProt Q9HC98). Kind of experiment: Inhibition of NEK6 (unknown origin) assessed as residual activity at 100 nM by KINOMEscan analysis relative to control.
For experiment [3], the system named is Tyrosine-protein kinase ABL1 (Homo sapiens), P00519 [Q252H]. Kind of experiment: Inhibition of phosphorylated ABL1 Q252H mutant (unknown origin) assessed as residual activity at 100 nM by KINOMEscan analysis relative to control.
Experiment [4] deals with Mast/stem cell growth factor receptor Kit (Homo sapiens), P10721 [A829P]. Kind of experiment: Inhibition of KIT A829P mutant (unknown origin) assessed as residual activity at 100 nM by KINOMEscan analysis relative to control.
Experiment [5] addresses Myosin-IIIa (Homo sapiens) (UniProt Q8NEV4). Put plainly: Inhibition of MYO3A (unknown origin) assessed as residual activity at 100 nM by KINOMEscan analysis relative to control.
Experiment [6] concerns the target Serine/threonine-protein kinase SIK1 (Homo sapiens) (UniProt P57059). Put plainly: Inhibition of SIK (unknown origin) assessed as residual activity at 100 nM by KINOMEscan analysis relative to control.
The target of experiment [7] is T2, Son of sevenless homolog 1 (Homo sapiens) (UniProt Q07889).
T2 sequence (whole entry): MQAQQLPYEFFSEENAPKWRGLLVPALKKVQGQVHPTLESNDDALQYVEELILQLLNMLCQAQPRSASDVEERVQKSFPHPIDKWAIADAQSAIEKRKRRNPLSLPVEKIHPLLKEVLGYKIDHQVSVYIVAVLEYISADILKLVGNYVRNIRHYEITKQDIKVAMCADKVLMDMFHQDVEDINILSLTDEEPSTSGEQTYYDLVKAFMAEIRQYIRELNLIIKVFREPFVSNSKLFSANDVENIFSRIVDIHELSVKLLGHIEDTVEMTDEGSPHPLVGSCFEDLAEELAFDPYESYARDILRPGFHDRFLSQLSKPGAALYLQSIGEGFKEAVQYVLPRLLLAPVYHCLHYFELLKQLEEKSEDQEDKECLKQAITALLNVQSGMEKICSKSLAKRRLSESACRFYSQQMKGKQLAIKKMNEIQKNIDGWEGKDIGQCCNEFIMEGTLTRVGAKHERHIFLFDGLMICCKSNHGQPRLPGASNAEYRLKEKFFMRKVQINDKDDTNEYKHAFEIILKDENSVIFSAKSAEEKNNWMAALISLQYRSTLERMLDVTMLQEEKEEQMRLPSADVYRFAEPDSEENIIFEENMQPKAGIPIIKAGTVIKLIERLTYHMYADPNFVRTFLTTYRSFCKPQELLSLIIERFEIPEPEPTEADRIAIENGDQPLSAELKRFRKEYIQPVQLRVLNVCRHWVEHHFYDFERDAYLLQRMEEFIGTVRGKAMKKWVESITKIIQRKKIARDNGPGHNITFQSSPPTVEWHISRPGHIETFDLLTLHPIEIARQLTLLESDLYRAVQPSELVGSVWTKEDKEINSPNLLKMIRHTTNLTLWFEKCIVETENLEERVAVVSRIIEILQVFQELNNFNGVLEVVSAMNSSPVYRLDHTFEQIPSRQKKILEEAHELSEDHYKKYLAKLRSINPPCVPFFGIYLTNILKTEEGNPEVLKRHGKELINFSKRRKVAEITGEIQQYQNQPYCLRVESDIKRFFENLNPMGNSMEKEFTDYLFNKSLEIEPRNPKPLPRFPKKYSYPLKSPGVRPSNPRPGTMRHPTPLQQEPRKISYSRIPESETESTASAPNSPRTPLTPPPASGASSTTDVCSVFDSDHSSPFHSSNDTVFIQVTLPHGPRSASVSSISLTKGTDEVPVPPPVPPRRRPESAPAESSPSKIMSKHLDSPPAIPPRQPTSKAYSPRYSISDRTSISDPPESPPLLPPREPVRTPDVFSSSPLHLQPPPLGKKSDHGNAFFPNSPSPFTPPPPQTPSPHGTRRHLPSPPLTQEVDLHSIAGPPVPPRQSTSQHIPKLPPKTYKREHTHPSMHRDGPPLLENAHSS
Kind of experiment: Binding affinity to N-terminal His10-tagged wild-type recombinant human SOS1 catalytic domain (564 to 1049 residues) expressed in Escherichia coli assessed as binding at 1:1 stoichiometry at 100 uM incubated for 1 hr by native MS analysis.

Sequence of Mast/stem cell growth factor receptor Kit (Homo sapiens), P10721 [A829P] (P10721 whole entry A829P): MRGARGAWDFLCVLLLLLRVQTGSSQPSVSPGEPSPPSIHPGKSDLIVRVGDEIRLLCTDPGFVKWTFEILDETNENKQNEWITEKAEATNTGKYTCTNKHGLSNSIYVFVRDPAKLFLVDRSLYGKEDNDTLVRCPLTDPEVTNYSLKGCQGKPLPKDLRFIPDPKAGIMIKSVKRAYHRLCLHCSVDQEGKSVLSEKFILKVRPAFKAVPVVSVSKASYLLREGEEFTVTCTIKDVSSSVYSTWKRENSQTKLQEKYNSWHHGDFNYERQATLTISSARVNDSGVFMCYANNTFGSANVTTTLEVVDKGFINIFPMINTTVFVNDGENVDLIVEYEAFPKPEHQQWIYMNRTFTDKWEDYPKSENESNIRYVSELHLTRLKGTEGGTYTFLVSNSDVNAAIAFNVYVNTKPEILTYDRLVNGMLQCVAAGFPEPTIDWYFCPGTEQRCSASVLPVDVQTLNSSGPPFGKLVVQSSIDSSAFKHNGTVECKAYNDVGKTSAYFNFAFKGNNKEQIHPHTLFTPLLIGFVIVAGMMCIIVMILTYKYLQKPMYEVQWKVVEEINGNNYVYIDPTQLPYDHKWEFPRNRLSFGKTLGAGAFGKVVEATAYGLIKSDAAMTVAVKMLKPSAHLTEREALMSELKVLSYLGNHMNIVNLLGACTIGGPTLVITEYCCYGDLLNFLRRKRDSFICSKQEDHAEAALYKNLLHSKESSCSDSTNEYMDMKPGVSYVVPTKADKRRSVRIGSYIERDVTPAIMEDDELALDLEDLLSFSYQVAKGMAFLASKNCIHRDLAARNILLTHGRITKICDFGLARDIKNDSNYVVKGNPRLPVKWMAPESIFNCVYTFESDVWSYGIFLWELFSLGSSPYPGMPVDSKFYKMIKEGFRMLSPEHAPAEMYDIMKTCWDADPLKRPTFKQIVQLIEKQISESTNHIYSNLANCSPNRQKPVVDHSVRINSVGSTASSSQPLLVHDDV
Sequence of Serine/threonine-protein kinase SIK1 (Homo sapiens) (P57059 whole entry): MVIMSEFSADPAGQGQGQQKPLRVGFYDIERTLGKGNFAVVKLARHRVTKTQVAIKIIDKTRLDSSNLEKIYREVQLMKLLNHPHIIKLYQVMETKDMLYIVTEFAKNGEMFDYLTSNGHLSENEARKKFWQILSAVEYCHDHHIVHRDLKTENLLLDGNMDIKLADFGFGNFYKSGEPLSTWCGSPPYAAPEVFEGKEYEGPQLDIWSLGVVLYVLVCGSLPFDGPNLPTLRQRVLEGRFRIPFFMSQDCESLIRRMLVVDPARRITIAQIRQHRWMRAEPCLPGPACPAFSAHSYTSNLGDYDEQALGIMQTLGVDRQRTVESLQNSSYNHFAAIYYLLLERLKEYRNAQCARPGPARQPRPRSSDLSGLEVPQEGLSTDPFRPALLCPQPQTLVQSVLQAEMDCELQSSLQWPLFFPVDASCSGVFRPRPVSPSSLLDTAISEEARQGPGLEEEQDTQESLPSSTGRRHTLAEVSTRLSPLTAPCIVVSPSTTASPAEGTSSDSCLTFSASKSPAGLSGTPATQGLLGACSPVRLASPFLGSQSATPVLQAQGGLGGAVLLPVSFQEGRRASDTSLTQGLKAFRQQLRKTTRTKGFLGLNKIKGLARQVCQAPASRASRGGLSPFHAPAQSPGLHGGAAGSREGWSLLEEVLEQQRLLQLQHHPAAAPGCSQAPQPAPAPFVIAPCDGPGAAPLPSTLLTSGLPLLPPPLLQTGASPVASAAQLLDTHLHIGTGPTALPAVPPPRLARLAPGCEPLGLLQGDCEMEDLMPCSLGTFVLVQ
Sequence of Serine/threonine-protein kinase Nek6 (Homo sapiens) (Q9HC98 whole entry): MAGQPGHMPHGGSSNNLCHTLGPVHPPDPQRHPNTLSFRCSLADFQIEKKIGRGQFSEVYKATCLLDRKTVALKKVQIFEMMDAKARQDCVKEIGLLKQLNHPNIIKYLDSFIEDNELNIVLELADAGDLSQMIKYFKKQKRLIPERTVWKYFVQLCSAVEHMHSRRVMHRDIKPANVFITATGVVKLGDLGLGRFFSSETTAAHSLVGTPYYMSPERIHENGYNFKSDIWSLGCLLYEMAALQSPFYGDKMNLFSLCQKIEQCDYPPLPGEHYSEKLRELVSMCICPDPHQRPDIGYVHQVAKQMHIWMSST
Sequence of Myosin-IIIa (Homo sapiens) (Q8NEV4 whole entry): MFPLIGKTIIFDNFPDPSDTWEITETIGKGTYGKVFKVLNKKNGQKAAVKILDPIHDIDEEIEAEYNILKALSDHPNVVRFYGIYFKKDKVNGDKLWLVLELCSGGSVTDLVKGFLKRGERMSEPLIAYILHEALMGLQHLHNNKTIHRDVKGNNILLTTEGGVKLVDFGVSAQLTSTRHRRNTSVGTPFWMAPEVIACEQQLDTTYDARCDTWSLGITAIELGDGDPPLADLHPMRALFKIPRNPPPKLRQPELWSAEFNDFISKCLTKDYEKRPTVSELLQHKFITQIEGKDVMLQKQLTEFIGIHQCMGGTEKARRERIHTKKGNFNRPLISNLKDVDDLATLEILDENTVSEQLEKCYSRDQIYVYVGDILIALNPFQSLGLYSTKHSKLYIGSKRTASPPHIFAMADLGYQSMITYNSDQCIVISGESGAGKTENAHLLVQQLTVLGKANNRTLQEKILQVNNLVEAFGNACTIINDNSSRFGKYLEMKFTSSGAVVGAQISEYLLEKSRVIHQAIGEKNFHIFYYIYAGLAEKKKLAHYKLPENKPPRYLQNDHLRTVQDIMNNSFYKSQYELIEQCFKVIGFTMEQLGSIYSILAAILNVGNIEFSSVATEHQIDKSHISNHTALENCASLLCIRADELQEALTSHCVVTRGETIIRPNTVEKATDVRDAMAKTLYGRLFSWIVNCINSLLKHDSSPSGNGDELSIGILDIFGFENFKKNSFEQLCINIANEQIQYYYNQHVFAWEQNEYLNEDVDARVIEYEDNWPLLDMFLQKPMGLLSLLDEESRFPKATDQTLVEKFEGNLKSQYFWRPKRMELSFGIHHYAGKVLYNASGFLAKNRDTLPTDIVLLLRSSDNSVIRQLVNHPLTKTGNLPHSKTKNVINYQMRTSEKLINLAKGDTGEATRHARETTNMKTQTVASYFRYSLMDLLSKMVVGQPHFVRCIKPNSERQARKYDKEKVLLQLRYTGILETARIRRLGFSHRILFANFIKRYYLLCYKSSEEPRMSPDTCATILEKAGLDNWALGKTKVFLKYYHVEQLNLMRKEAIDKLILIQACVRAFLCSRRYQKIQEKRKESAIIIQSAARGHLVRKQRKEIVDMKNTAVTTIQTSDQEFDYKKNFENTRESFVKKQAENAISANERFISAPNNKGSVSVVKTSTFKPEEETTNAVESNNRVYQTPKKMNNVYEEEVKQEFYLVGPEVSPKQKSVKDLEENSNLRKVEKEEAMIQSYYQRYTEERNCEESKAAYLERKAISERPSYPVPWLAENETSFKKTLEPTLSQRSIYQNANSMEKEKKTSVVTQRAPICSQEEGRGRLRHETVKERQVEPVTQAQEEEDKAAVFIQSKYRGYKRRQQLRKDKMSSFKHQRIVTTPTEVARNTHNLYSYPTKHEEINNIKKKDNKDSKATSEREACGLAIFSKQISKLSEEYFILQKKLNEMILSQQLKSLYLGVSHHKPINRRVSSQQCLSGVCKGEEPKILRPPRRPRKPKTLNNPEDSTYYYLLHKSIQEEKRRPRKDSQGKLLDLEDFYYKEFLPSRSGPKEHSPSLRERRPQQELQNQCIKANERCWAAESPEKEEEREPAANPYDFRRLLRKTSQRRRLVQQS

Consider `COc1cc2ncnc(N[C@H](C)c3cccc4ccccc34)c2cc1OC`, for which the Activity in experiment [1] came to 100%; in experiment [2], 79%; in experiment [3] it was 96%; in experiment [4], 96%; in experiment [5], 100%; in experiment [6] it was 85%. Also, the outcome in experiment [7] was Active.

The values above are taken from ChEMBL document CHEMBL5678818, “Discovery of potent SOS1 inhibitors that block RAS activation via disruption of the RAS-SOS1 interaction” (Proc Natl Acad Sci U S A, 2019).
